Columns and labels:
Assay in all cases: relative viability (nuclei count vs DMSO), 5 days (fraction); higher = more cells survive
[1] = tested on: NCI-H2009
Method in brief: (§1)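 Lung cancer cell lines were seeded in 1536-well plates and dosed by pin tool the next day, with either a single drug or a fixed anchor-drug dose combined with five library-drug doses (not always all listed) spaced in √10 steps. Five days later, one step fixed the cells and stained their nuclei (final 0.05% Triton X-100, 1% formaldehyde, 1 ug/ml Hoechst), and nuclei were counted on 4× images. Relative viability is the nuclei count in treated wells divided by the count in vehicle wells, and each value is the median of duplicate plates.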

[2] = tested on: NCI-H1993
Method in brief: as §1

[3] = tested on: SK-MES-1
Method in brief: as §1

[4] = tested on: NCI-H2170
Method in brief: as §1

[5] = tested on: NCI-H1355
Method in brief: as §1

[6] = tested on: NCI-H647
Method in brief: as §1

[7] = tested on: NCI-H2228
Method in brief: as §1

[8] = tested on: NCI-H1793
Method in brief: as §1

[9] = tested on: COR-L23
Method in brief: as §1

[10] = tested on: COR-L 105
Method in brief: as §1

[11] = tested on: NCI-H1755
Method in brief: as §1

[12] = tested on: EKVX
Method in brief: as §1

[13] = tested on: UMC-11
Method in brief: as §1

[14] = tested on: NCI-H322M
Method in brief: as §1

[15] = tested on: NCI-H2347
Method in brief: as §1

[16] = tested on: HOP-62
Method in brief: as §1

[17] = tested on: NCI-H838
Method in brief: as §1

[18] = tested on: PC-14
Method in brief: as §1

[19] = tested on: NCI-H358
Method in brief: as §1

[20] = tested on: HARA
Method in brief: as §1

[21] = tested on: NCI-H1734
Method in brief: as §1

[22] = tested on: NCI-H1395
Method in brief: as §1

CC(C)Oc1cc(Nc2nc(N[C@@H](C)c3ccc(F)cn3)ncc2Cl)n[nH]1 [AZ23] + CS(=O)(=O)CCNCc1ccc(-c2ccc3ncnc(Nc4ccc(OCc5cccc(F)c5)c(Cl)c4)c3c2)o1 [Lapatinib] (partner 2 µM)
relative viability ([1]; first compound 0.01 µM): 0.97
relative viability ([1]; first compound 0.03162 µM): 0.997
relative viability ([1]; first compound 0.3162 µM): 0.918
relative viability ([2]; first compound 0.01 µM): 0.808
relative viability ([2]; first compound 0.3162 µM): 0.946
relative viability ([3]; first compound 0.01 µM): 0.492
relative viability ([3]; first compound 0.03162 µM): 0.484
relative viability ([3]; first compound 0.3162 µM): 0.491
relative viability ([4]; first compound 0.01 µM): 0.267
relative viability ([4]; first compound 0.03162 µM): 0.283
relative viability ([4]; first compound 0.3162 µM): 0.27
relative viability ([5]; first compound 0.01 µM): 1.16
relative viability ([5]; first compound 0.03162 µM): 1.07
relative viability ([5]; first compound 0.3162 µM): 0.939
relative viability ([6]; first compound 0.01 µM): 1.71
relative viability ([6]; first compound 0.03162 µM): 1.27
relative viability ([6]; first compound 0.3162 µM): 1.34
relative viability ([7]; first compound 0.01 µM): 1.51
relative viability ([7]; first compound 0.03162 µM): 0.867
relative viability ([7]; first compound 0.3162 µM): 0.992
relative viability ([8]; first compound 0.01 µM): 0.367
relative viability ([8]; first compound 0.03162 µM): 0.804
relative viability ([8]; first compound 0.3162 µM): 0.486
relative viability ([9]; first compound 0.01 µM): 1.12
relative viability ([9]; first compound 0.03162 µM): 1.1
relative viability ([9]; first compound 0.3162 µM): 1
relative viability ([10]; first compound 0.01 µM): 0.35
relative viability ([10]; first compound 0.03162 µM): 0.382
relative viability ([10]; first compound 0.3162 µM): 0.373
relative viability ([11]; first compound 0.01 µM): 1.28
relative viability ([11]; first compound 0.03162 µM): 1.16
relative viability ([11]; first compound 0.3162 µM): 1.05
relative viability ([12]; first compound 0.01 µM): 0.188
relative viability ([12]; first compound 0.03162 µM): 0.207
relative viability ([12]; first compound 0.3162 µM): 0.192
relative viability ([13]; first compound 0.01 µM): 0.946
relative viability ([13]; first compound 0.03162 µM): 0.994
relative viability ([13]; first compound 0.3162 µM): 1.02
relative viability ([14]; first compound 0.01 µM): 0.575
relative viability ([14]; first compound 0.03162 µM): 0.621
relative viability ([14]; first compound 0.3162 µM): 0.614
relative viability ([15]; first compound 0.01 µM): 1.05
relative viability ([15]; first compound 0.03162 µM): 1.02
relative viability ([15]; first compound 0.3162 µM): 1.02
relative viability ([16]; first compound 0.01 µM): 1.14
relative viability ([16]; first compound 0.03162 µM): 0.985
relative viability ([16]; first compound 0.3162 µM): 0.966
relative viability ([17]; first compound 0.01 µM): 0.99
relative viability ([17]; first compound 0.03162 µM): 1.06
relative viability ([17]; first compound 0.3162 µM): 0.908
relative viability ([18]; first compound 0.01 µM): 0.351
relative viability ([18]; first compound 0.03162 µM): 0.404
relative viability ([18]; first compound 0.3162 µM): 0.348
relative viability ([19]; first compound 0.01 µM): 0.505
relative viability ([19]; first compound 0.03162 µM): 0.433
relative viability ([19]; first compound 0.3162 µM): 0.392
relative viability ([20]; first compound 0.01 µM): 0.862
relative viability ([20]; first compound 0.03162 µM): 0.708
relative viability ([20]; first compound 0.3162 µM): 0.584
relative viability ([21]; first compound 0.01 µM): 1.27
relative viability ([21]; first compound 0.03162 µM): 1.23
relative viability ([21]; first compound 0.3162 µM): 1.11
relative viability ([22]; first compound 0.03162 µM): 0.943
relative viability ([22]; first compound 0.3162 µM): 1.03

CC(C)Oc1cc(Nc2nc(N[C@@H](C)c3ccc(F)cn3)ncc2Cl)n[nH]1 [AZ23] + CS(=O)(=O)N1CCN(Cc2cc3nc(-c4cccc5[nH]ncc45)nc(N4CCOCC4)c3s2)CC1 [Pictilisib] (partner 1 µM)
relative viability ([1]; first compound 0.01 µM): 0.943
relative viability ([1]; first compound 0.03162 µM): 0.88
relative viability ([1]; first compound 0.3162 µM): 0.854
relative viability ([2]; first compound 0.01 µM): 0.755
relative viability ([2]; first compound 0.3162 µM): 0.869
relative viability ([3]; first compound 0.01 µM): 0.329
relative viability ([3]; first compound 0.03162 µM): 0.358
relative viability ([3]; first compound 0.3162 µM): 0.387
relative viability ([4]; first compound 0.01 µM): 0.288
relative viability ([4]; first compound 0.03162 µM): 0.325
relative viability ([4]; first compound 0.3162 µM): 0.304
relative viability ([5]; first compound 0.01 µM): 0.367
relative viability ([5]; first compound 0.03162 µM): 0.46
relative viability ([5]; first compound 0.3162 µM): 0.401
relative viability ([6]; first compound 0.03162 µM): 0.5
relative viability ([6]; first compound 0.3162 µM): 0.447
relative viability ([7]; first compound 0.01 µM): 0.523
relative viability ([7]; first compound 0.03162 µM): 0.346
relative viability ([7]; first compound 0.3162 µM): 0.394
relative viability ([8]; first compound 0.01 µM): 0.318
relative viability ([8]; first compound 0.03162 µM): 0.369
relative viability ([8]; first compound 0.3162 µM): 0.371
relative viability ([9]; first compound 0.01 µM): 0.587
relative viability ([9]; first compound 0.03162 µM): 0.947
relative viability ([9]; first compound 0.3162 µM): 0.862
relative viability ([10]; first compound 0.01 µM): 0.407
relative viability ([10]; first compound 0.03162 µM): 0.417
relative viability ([10]; first compound 0.3162 µM): 0.383
relative viability ([11]; first compound 0.01 µM): 0.41
relative viability ([11]; first compound 0.03162 µM): 0.478
relative viability ([11]; first compound 0.3162 µM): 0.464
relative viability ([12]; first compound 0.01 µM): 0.481
relative viability ([12]; first compound 0.03162 µM): 0.466
relative viability ([12]; first compound 0.3162 µM): 0.444
relative viability ([13]; first compound 0.01 µM): 0.762
relative viability ([13]; first compound 0.03162 µM): 0.963
relative viability ([13]; first compound 0.3162 µM): 0.818
relative viability ([14]; first compound 0.01 µM): 0.477
relative viability ([14]; first compound 0.03162 µM): 0.497
relative viability ([14]; first compound 0.3162 µM): 0.561
relative viability ([15]; first compound 0.01 µM): 0.525
relative viability ([15]; first compound 0.03162 µM): 0.681
relative viability ([15]; first compound 0.3162 µM): 0.543
relative viability ([16]; first compound 0.01 µM): 0.635
relative viability ([16]; first compound 0.03162 µM): 1.11
relative viability ([16]; first compound 0.3162 µM): 0.874
relative viability ([17]; first compound 0.01 µM): 0.467
relative viability ([17]; first compound 0.03162 µM): 0.464
relative viability ([17]; first compound 0.3162 µM): 0.51
relative viability ([18]; first compound 0.01 µM): 0.757
relative viability ([18]; first compound 0.03162 µM): 0.689
relative viability ([18]; first compound 0.3162 µM): 0.739
relative viability ([19]; first compound 0.01 µM): 0.404
relative viability ([19]; first compound 0.03162 µM): 0.329
relative viability ([19]; first compound 0.3162 µM): 0.324
relative viability ([20]; first compound 0.01 µM): 0.421
relative viability ([20]; first compound 0.03162 µM): 0.373
relative viability ([20]; first compound 0.3162 µM): 0.282
relative viability ([21]; first compound 0.01 µM): 0.429
relative viability ([21]; first compound 0.03162 µM): 0.543
relative viability ([21]; first compound 0.3162 µM): 0.487
relative viability ([22]; first compound 0.03162 µM): 0.666
relative viability ([22]; first compound 0.3162 µM): 0.577
